Tested on: patients with negative symptoms of schizophrenia
Assay: Study #1 (MIN-101C03): Brief Negative Symptoms Scale (BNSS)
Assay type: in vivo, human
Details: Week 12 DB, ITT
Excerpt: As used herein, “BNSS” is the Brief Negative Symptom Scale. “BNSS” is 13-item instrument designed to measure negative symptoms, specifically: blunted affect, alogia, asociality, anhedonia, and avolition (Kirkpatrick, et al., “The Brief Negative Symptom Scale: Psychometric Properties,” Schizophr. Bull., 2011, 37(2), 300-5.).
Phase 2b Study #1 (also referred to herein as “MIN-101C03”) was a Phase 2b, double-blind (“DB”), placebo-controlled, randomized, multicenter 12-week study to evaluate the efficacy, safety, and tolerability of Roluperidone in patients ≥18 years to ≤60 years with negative symptoms of schizophrenia, followed by a 24-week open-label (“OL”) extension. The primary objective of the study was to evaluate the efficacy of Roluperidone compared to placebo in improving the negative symptoms of schizophrenia as measured by the change from Baseline in the PANSS negative factor score of the PSM (“PANSS PSM”) over 12 weeks of treatment.
The study consisted of a pretreatment screening period of up to 28 days (including washout), a 12-week, DB, placebo-controlled period, and a 24-week OL period. Eligible patients (who were symptomatically stable for at least 3 months and had scores of at least 20 on the PANSS negative subscale score) were randomized in a 1:1:1 ratio to receive oral Roluperidone (a modified-release, “MR”, formulation) 32 mg QD, Roluperidone 64 mg QD, or placebo for 12 weeks. […] During the 24-week, OL treatment extension period, patients who were initially randomized to Roluperidone 32 mg or 64 mg continued on the same dose, while patients who were initially randomized to placebo crossed over to Roluperidone 32 mg or 64 mg in a 1:1 ratio.

Substance: 1H-Isoindol-1-one,2-[ [1-[2-(4-fluorophenyl)-2-oxoethyl]-4-piperidinyl]methyl]-2,3-dihydro-, hydrochloride, hydrate (1:1:2) [Roluperidone]
- Change from Baseline LS Mean: Brief Negative Symptoms Scale Total Score (32 mg QD): −5.44
- Effect Size vs Placebo: Brief Negative Symptoms Scale Total Score (32 mg QD): 0.33
- Change from Baseline LS Mean: Brief Negative Symptoms Scale Total Score (64 mg QD): −6.94
- Effect Size vs Placebo: Brief Negative Symptoms Scale Total Score (64 mg QD): 0.56
